Reference: patent US20100267561A1, “HERBICIDAL PYRIDAZINONE DERIVATIVES” (priority 2007, published 2010)

Columns and labels:
Format in all cases: in vivo
[1] = system: Russian thistle (Salsola iberica); assay: Test B pre-/postemergence plant response; conditions: Preemergence; for Russian Thistle plant response rating: 8 g ai/ha
Method in brief: (§1)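 Seeds were sown and sprayed preemergence, while plants at 2 to 18 cm (1- to 4-leaf stage) got postemergence sprays. Compounds were formulated in a non-phytotoxic solvent mixture with surfactant. After 13 to 15 days in a greenhouse, injury was rated visually against untreated controls, 0 (no effect) to 100 (complete control).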

[2] = system: bermudagrass (Cynodon dactylon); assay: Test B pre-/postemergence plant response; conditions: Preemergence; for Bermudagrass plant response rating: 8 g ai/ha
Method in brief: as §1

[3] = system: cocklebur (Xanthium strumarium); assay: Test B pre-/postemergence plant response; conditions: Preemergence; for Cocklebur plant response rating: 8 g ai/ha
Method in brief: as §1

[4] = system: common (oilseed) sunflower (Helianthus annuus); assay: Test B pre-/postemergence plant response; conditions: Preemergence; for Sunflower plant response rating: 8 g ai/ha
Method in brief: as §1

[5] = system: common ragweed (Ambrosia elation); assay: Test B pre-/postemergence plant response; conditions: Preemergence; for Ragweed plant response rating: 8 g ai/ha
Method in brief: as §1

corn (Zea mays) = assay: Test B pre-/postemergence plant response; conditions: Preemergence; for Corn plant response rating: 8 g ai/ha
Method in brief: as §1

[6] = system: goosegrass (Eleusine indica); assay: Test B pre-/postemergence plant response; conditions: Preemergence; for Goosegrass plant response rating: 8 g ai/ha
Method in brief: as §1

[7] = system: lambsquarters (Chenopodium album); assay: Test B pre-/postemergence plant response; conditions: Preemergence; for Lambsquarters plant response rating: 8 g ai/ha
Method in brief: as §1

[8] = system: large crabgrass (Digitaria sanguinalis); assay: Test B pre-/postemergence plant response; conditions: Preemergence; for Crabgrass, Large plant response rating: 8 g ai/ha
Method in brief: as §1

soybean (Glycine max) = assay: Test B pre-/postemergence plant response; conditions: Preemergence; for Soybean plant response rating: 8 g ai/ha
Method in brief: as §1

[9] = system: surinam grass (Brachiaria decumbens); assay: Test B pre-/postemergence plant response; conditions: Preemergence; for Surinam Grass plant response rating: 8 g ai/ha
Method in brief: as §1

[10] = system: wheat (Triticum aestivum); assay: Test B pre-/postemergence plant response; conditions: Preemergence; for Wheat plant response rating: 8 g ai/ha
Method in brief: as §1

[11] = system: ducksalad (Heteranthera limosa); assay: Test B flooded paddy test plant response
Method in brief: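 Rice, umbrella sedge, ducksalad and barnyardgrass at 2-leaf stage; pots flooded to 3 cm, compounds applied into paddy water, depth held throughout. Greenhouse 13 to 15 days, then visual rating vs untreated controls on 0–100 scale (0 no effect, 100 complete control); dash means no test result.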

[12] = 16 g ai/ha, scale 0 to 100 (0 no effect, 100 complete control)
[13] = 31 g ai/ha, 0 to 100 scale, 0 no effect, 100 complete control
[14] = Flood (flooded paddy test), 62 g ai/ha, scale 0 to 100, 0 no effect, 100 complete control
[15] = Flood (flooded paddy test), 125 g ai/ha, scale 0 to 100, 0 no effect, 100 complete control
[16] = Flood (flooded paddy test), 250 g ai/ha, scale 0 to 100, 0 no effect, 100 complete control
[17] = Flood, 31 g ai/ha, scale 0 to 100
[18] = 31 g ai/ha, scale 0 to 100 (0 no effect, 100 complete control)
[19] = scale 0 to 100 (0 no effect, 100 complete control)
[20] = 62 g ai/ha, 0 to 100 scale, 0 no effect, 100 complete control

Cc1cc(-c2ccc(C(F)(F)F)cc2)nn1-c1c(O)c(C(C)C)nn(C)c1=O [Compound 27]
60: Plant response rating, Ducksalad [11, 15]
45: Plant response rating, Wheat ([10]; 62 g ai/ha, scale 0 to 100)
40: Plant response rating, Ducksalad [11, 14]
100: Plant response rating, Bermudagrass [2, 13] | Plant response rating, Bermudagrass ([2]; 62 g ai/ha, scale 0 to 100)
85: Plant response rating, Corn (corn (Zea mays); 62 g ai/ha, scale 0 to 100)
0: Plant response rating, Russian Thistle [1, 12] | Plant response rating, Russian Thistle [1, 13] | Plant response rating, Russian Thistle ([1]; 62 g ai/ha, scale 0 to 100) | Russian Thistle plant response rating ([1]; scale 0 to 100) | Plant response rating, Bermudagrass [2, 12] | Plant response rating, Cocklebur [3, 12] | Plant response rating, Cocklebur [3, 13] | Plant response rating, Cocklebur ([3]; 62 g ai/ha, scale 0 to 100) | Cocklebur plant response rating ([3]; scale 0 to 100) | Plant response rating, Sunflower [4, 12] | Plant response rating, Sunflower [4, 13] | Plant response rating, Sunflower ([4]; 62 g ai/ha, scale 0 to 100) | Sunflower plant response rating ([4]; scale 0 to 100) | Plant response rating, Ragweed [5, 12] | Plant response rating, Ragweed [5, 13] | Plant response rating, Ragweed ([5]; 62 g ai/ha, scale 0 to 100) | Ragweed plant response rating ([5]; scale 0 to 100) | Plant response rating, Corn (corn (Zea mays); [12]) | Corn plant response rating (corn (Zea mays); scale 0 to 100) | Goosegrass plant response rating ([6]; scale 0 to 100) | Plant response rating, Lambsquarters [7, 12] | Plant response rating, Lambsquarters ([7]; 62 g ai/ha, scale 0 to 100) | Lambsquarters plant response rating ([7]; scale 0 to 100) | Plant response rating, Crabgrass, Large [8, 12] | Plant response rating, Crabgrass, Large [8, 13] | Plant response rating, Crabgrass, Large ([8]; 62 g ai/ha, scale 0 to 100) | Crabgrass, Large plant response rating ([8]; scale 0 to 100) | Plant response rating, Soybean (soybean (Glycine max); [12]) | Plant response rating, Soybean (soybean (Glycine max); [13]) | Plant response rating, Soybean (soybean (Glycine max); 62 g ai/ha, scale 0 to 100) | Soybean plant response rating (soybean (Glycine max); scale 0 to 100) | Plant response rating, Surinam Grass [9, 12] | Plant response rating, Surinam Grass [9, 13] | Surinam Grass plant response rating ([9]; scale 0 to 100) | Plant response rating, Wheat [10, 12] | Wheat plant response rating ([10]; scale 0 to 100) | Plant response rating, Ducksalad [11, 17]
95: Plant response rating, Goosegrass [6, 13] | Plant response rating, Goosegrass ([6]; 62 g ai/ha, scale 0 to 100)
15: Plant response rating, Wheat [10, 13]
75: Plant response rating, Corn (corn (Zea mays); [13]) | Plant response rating, Goosegrass [6, 12] | Plant response rating, Surinam Grass ([9]; 62 g ai/ha, scale 0 to 100) | Plant response rating, Ducksalad [11, 16]

Cc1cc(-c2ccc(Cl)cc2)nn1-c1c(OS(=O)(=O)C(C)C)cnn(C)c1=O [Compound 50]
80: Plant response rating, Goosegrass [6, 12]
100: Plant response rating, Bermudagrass [2, 12] | Plant response rating, Bermudagrass [2, 13] | Plant response rating, Bermudagrass ([2]; 62 g ai/ha, scale 0 to 100) | Plant response rating, Goosegrass ([6]; 62 g ai/ha, scale 0 to 100) | Plant response rating, Lambsquarters [7, 13] | Plant response rating, Lambsquarters ([7]; 62 g ai/ha, scale 0 to 100) | Plant response rating, Crabgrass, Large [8, 13] | Plant response rating, Crabgrass, Large ([8]; 62 g ai/ha, scale 0 to 100) | Plant response rating, Soybean (soybean (Glycine max); [18]) | Plant response rating, Soybean (soybean (Glycine max); 62 g ai/ha, scale 0 to 100)
40: Plant response rating, Surinam Grass [9, 12]
65: Plant response rating, Lambsquarters [7, 12]
0: Plant response rating, Russian Thistle [1, 12] | Plant response rating, Russian Thistle [1, 18] | Plant response rating, Russian Thistle ([1]; 62 g ai/ha, scale 0 to 100) | Russian Thistle plant response rating ([1]; scale 0 to 100) | Plant response rating, Cocklebur [3, 12] | Plant response rating, Cocklebur [3, 13] | Plant response rating, Cocklebur ([3]; 62 g ai/ha, scale 0 to 100) | Cocklebur plant response rating ([3]; scale 0 to 100) | Plant response rating, Sunflower [4, 12] | Plant response rating, Sunflower [4, 18] | Sunflower plant response rating ([4]; scale 0 to 100) | Plant response rating, Ragweed [5, 12] | Plant response rating, Ragweed [5, 18] | Plant response rating, Ragweed ([5]; 62 g ai/ha, scale 0 to 100) | Ragweed plant response rating ([5]; scale 0 to 100) | Plant response rating, Corn (corn (Zea mays); [12]) | Corn plant response rating (corn (Zea mays); scale 0 to 100) | Goosegrass plant response rating ([6]; scale 0 to 100) | Lambsquarters plant response rating ([7]; scale 0 to 100) | Soybean plant response rating (soybean (Glycine max); scale 0 to 100) | Plant response rating, Wheat [10, 12] | Plant response rating, Wheat [10, 18] | Plant response rating, Wheat [10, 20] | Wheat plant response rating ([10]; scale 0 to 100) | Plant response rating, Ducksalad [11, 14] | Plant response rating, Ducksalad [11, 15] | Plant response rating, Ducksalad [11, 16] | Plant response rating, Ducksalad [11, 17]
98: Plant response rating, Goosegrass [6, 13] | Plant response rating, Crabgrass, Large [8, 12] | Plant response rating, Surinam Grass [9, 20]
50: Plant response rating, Soybean (soybean (Glycine max); [12])
20: Plant response rating, Sunflower ([4]; 62 g ai/ha, scale 0 to 100) | Surinam Grass plant response rating ([9]; scale 0 to 100)
90: Bermudagrass plant response rating [2, 19] | Plant response rating, Corn (corn (Zea mays); 62 g ai/ha, scale 0 to 100) | Plant response rating, Surinam Grass [9, 18]
60: Crabgrass, Large plant response rating ([8]; scale 0 to 100)

Cc1cc(-c2ccc(Cl)cc2)nn1-c1c(OS(=O)(=O)c2cccc3ccccc23)cnn(C)c1=O [Compound 47]
0: Plant response rating, Russian Thistle [1, 12] | Plant response rating, Russian Thistle [1, 18] | Russian Thistle plant response rating ([1]; scale 0 to 100) | Plant response rating, Cocklebur [3, 12] | Plant response rating, Cocklebur [3, 13] | Plant response rating, Cocklebur ([3]; 62 g ai/ha, scale 0 to 100) | Cocklebur plant response rating ([3]; scale 0 to 100) | Plant response rating, Sunflower [4, 12] | Plant response rating, Sunflower [4, 18] | Plant response rating, Sunflower ([4]; 62 g ai/ha, scale 0 to 100) | Sunflower plant response rating ([4]; scale 0 to 100) | Plant response rating, Ragweed [5, 12] | Plant response rating, Ragweed [5, 18] | Plant response rating, Ragweed ([5]; 62 g ai/ha, scale 0 to 100) | Ragweed plant response rating ([5]; scale 0 to 100) | Corn plant response rating (corn (Zea mays); scale 0 to 100) | Plant response rating, Lambsquarters [7, 13] | Lambsquarters plant response rating ([7]; scale 0 to 100) | Crabgrass, Large plant response rating ([8]; scale 0 to 100) | Plant response rating, Soybean (soybean (Glycine max); [12]) | Plant response rating, Soybean (soybean (Glycine max); [18]) | Plant response rating, Soybean (soybean (Glycine max); 62 g ai/ha, scale 0 to 100) | Soybean plant response rating (soybean (Glycine max); scale 0 to 100) | Plant response rating, Wheat [10, 12] | Plant response rating, Wheat [10, 18] | Wheat plant response rating ([10]; scale 0 to 100) | Plant response rating, Ducksalad [11, 14] | Plant response rating, Ducksalad [11, 15] | Plant response rating, Ducksalad [11, 16] | Plant response rating, Ducksalad [11, 17]
60: Bermudagrass plant response rating [2, 19]
80: Surinam Grass plant response rating ([9]; scale 0 to 100)
100: Plant response rating, Bermudagrass [2, 12] | Plant response rating, Bermudagrass [2, 13] | Plant response rating, Bermudagrass ([2]; 62 g ai/ha, scale 0 to 100) | Plant response rating, Goosegrass [6, 13] | Plant response rating, Goosegrass ([6]; 62 g ai/ha, scale 0 to 100) | Plant response rating, Crabgrass, Large [8, 13] | Plant response rating, Crabgrass, Large ([8]; 62 g ai/ha, scale 0 to 100) | Plant response rating, Surinam Grass [9, 20]
65: Plant response rating, Lambsquarters ([7]; 62 g ai/ha, scale 0 to 100)
85: Plant response rating, Corn (corn (Zea mays); [13]) | Plant response rating, Crabgrass, Large [8, 12]
40: Plant response rating, Russian Thistle ([1]; 62 g ai/ha, scale 0 to 100)
95: Plant response rating, Corn (corn (Zea mays); 62 g ai/ha, scale 0 to 100) | Plant response rating, Surinam Grass [9, 12]
20: Plant response rating, Corn (corn (Zea mays); [12]) | Plant response rating, Wheat [10, 20]
98: Plant response rating, Goosegrass [6, 12] | Plant response rating, Surinam Grass [9, 18]
70: Goosegrass plant response rating ([6]; scale 0 to 100)
